Source: ChEMBL document CHEMBL1201862, “PubChem BioAssay data set” (2004)
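Following 48 hours of exposure in 96-well plates, responses at five concentrations were used to interpolate endpoints linearly. Abbreviation: GI50, concentration required for 50% inhibition of growth.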 The source made the active and inactive calls. No stated cut-off is given here; in the data, active = GI50 up to about 1.1 µM and inactive = higher.

Columns and labels:
Experiment in all cases: NCI-60 cell line screen, 48 h
[1] = system: HCC 2998
[2] = system: HT-29
[3] = system: TK-10
[4] = system: SF-268
[5] = system: NCI-H460
[6] = system: SK-MEL-28
[7] = system: NCI-H23
[8] = system: K562
[9] = system: HOP-62
[10] = system: Hs-578T
[11] = system: COLO 205
[12] = system: KM12
[13] = system: HCT-116
[14] = system: UACC-62
[15] = system: BT-549
[16] = system: M14
[17] = system: MCF7
[18] = system: OVCAR-4
[19] = system: CCRF-CEM

Row | SMILES | GI50 [1] | GI50 [2] | GI50 [3] | GI50 [4] | GI50 [5] | GI50 [6] | GI50 [7] | GI50 [8] | GI50 [9] | GI50 [10] | GI50 [11] | GI50 [12] | GI50 [13] | GI50 [14] | GI50 [15] | GI50 [16] | GI50 [17] | GI50 [18] | GI50 [19]
1 | O=C(O)CCc1nc(-c2ccccc2-n2cccc2)no1 | > 100 µM (inactive) | 57.3 µM (inactive) | > 100 µM (inactive) | > 100 µM (inactive) | 73.6 µM (inactive) | > 100 µM (inactive) | > 100 µM (inactive) | > 100 µM (inactive) | > 100 µM (inactive) | > 100 µM (inactive) | > 100 µM (inactive) | 5.89 µM (inactive) | > 100 µM (inactive) | > 100 µM (inactive) | > 100 µM (inactive) | 89.1 µM (inactive) | 49.3 µM (inactive) | 11.8 µM (inactive) | –
2 | COc1ccccc1N=C(S)Nc1ccccn1 | – | > 100 µM (inactive) | 64.1 µM (inactive) | 45.6 µM (inactive) | > 100 µM (inactive) | > 100 µM (inactive) | – | > 100 µM (inactive) | 63.4 µM (inactive) | 84.7 µM (inactive) | > 100 µM (inactive) | > 100 µM (inactive) | > 100 µM (inactive) | > 100 µM (inactive) | > 100 µM (inactive) | > 100 µM (inactive) | > 100 µM (inactive) | > 100 µM (inactive) | > 100 µM (inactive)
3 | O=C1CC(c2ccccc2)n2c(nc3ccccc32)N1 (configuration not stated) | – | > 100 µM (inactive) | > 100 µM (inactive) | > 100 µM (inactive) | > 100 µM (inactive) | – | 64.1 µM (inactive) | 23.7 µM (inactive) | > 100 µM (inactive) | 76.9 µM (inactive) | > 100 µM (inactive) | > 100 µM (inactive) | > 100 µM (inactive) | 72.9 µM (inactive) | 29.2 µM (inactive) | > 100 µM (inactive) | 67.1 µM (inactive) | > 100 µM (inactive) | > 10 µM (inactive)
4 | Oc1ccc2c(c1)-c1c(c3ccccc3n1CCN1CCOCC1)CC2 | – | 39.6 µM (inactive) | 28.6 µM (inactive) | 59.4 µM (inactive) | > 100 µM (inactive) | – | 27.9 µM (inactive) | > 100 µM (inactive) | 47 µM (inactive) | 63.4 µM (inactive) | 41.7 µM (inactive) | 20 µM (inactive) | 31.4 µM (inactive) | 27.5 µM (inactive) | 43.7 µM (inactive) | 27.2 µM (inactive) | 37.2 µM (inactive) | – | > 100 µM (inactive)
5 | C=C(Br)C/N=C/N(C)C | – | > 100 µM (inactive) | > 100 µM (inactive) | > 100 µM (inactive) | – | > 100 µM (inactive) | > 100 µM (inactive) | > 100 µM (inactive) | > 100 µM (inactive) | > 100 µM (inactive) | > 100 µM (inactive) | – | > 100 µM (inactive) | > 100 µM (inactive) | > 100 µM (inactive) | > 100 µM (inactive) | > 100 µM (inactive) | > 100 µM (inactive) | > 100 µM (inactive)
6 | O=c1[nH]c(N/N=C\C(=N/Nc2nc3ccccc3c(=O)[nH]2)C(O)C(O)C(O)CO)nc2ccccc12 (configuration not stated) | – | > 100 µM (inactive) | > 100 µM (inactive) | > 100 µM (inactive) | > 100 µM (inactive) | > 100 µM (inactive) | > 100 µM (inactive) | > 100 µM (inactive) | > 100 µM (inactive) | > 100 µM (inactive) | > 100 µM (inactive) | > 100 µM (inactive) | > 100 µM (inactive) | > 100 µM (inactive) | > 100 µM (inactive) | > 100 µM (inactive) | > 100 µM (inactive) | – | > 100 µM (inactive)
7 | O=C1N/N=C\c2ccc(cc2)OCc2cccc(n2)COc2ccc(cc2)/C=N\NC1=O | – | > 25 µM (inactive) | > 25 µM (inactive) | > 25 µM (inactive) | > 25 µM (inactive) | > 25 µM (inactive) | > 25 µM (inactive) | > 25 µM (inactive) | > 25 µM (inactive) | 13.6 µM (inactive) | > 25 µM (inactive) | > 25 µM (inactive) | > 25 µM (inactive) | > 25 µM (inactive) | > 25 µM (inactive) | > 25 µM (inactive) | > 25 µM (inactive) | > 25 µM (inactive) | > 25 µM (inactive)
8 | O=C(CSCC(=O)N/N=C\c1ccc(-c2ccccc2)cc1)N/N=C\c1ccc(-c2ccccc2)cc1 | – | 23 µM (inactive) | 26 µM (inactive) | 15.8 µM (inactive) | 30.9 µM (inactive) | 29.6 µM (inactive) | 17.8 µM (inactive) | 25.8 µM (inactive) | 23 µM (inactive) | 18.3 µM (inactive) | 13.6 µM (inactive) | 17.9 µM (inactive) | 9.27 µM (inactive) | 22.9 µM (inactive) | 20.8 µM (inactive) | 23.8 µM (inactive) | 36.1 µM (inactive) | 20.7 µM (inactive) | –
9 | Cc1ccc(S(=O)(=O)n2cc(-c3cnc(N)c(Br)n3)c3ccccc32)cc1 | 3.29 µM (inactive) | 1.47 µM (inactive) | 11.4 µM (inactive) | 2.96 µM (inactive) | 3.18 µM (inactive) | 6.27 µM (inactive) | 1.56 µM (inactive) | 0.841 µM (active) | 6.73 µM (inactive) | 0.863 µM (active) | 2.46 µM (inactive) | 1.36 µM (inactive) | 0.83 µM (active) | 3.7 µM (inactive) | 22.7 µM (inactive) | 1.37 µM (inactive) | 0.757 µM (active) | 5.18 µM (inactive) | –
10 | COC(=O)[C@@H]1CC(C(CN)c2cn(C(=O)OC(C)(C)C)c3ccccc23)C(=O)N1C(=O)OC(C)(C)C (some centres not stated) | – | 24.8 µM (inactive) | 38.9 µM (inactive) | 27.5 µM (inactive) | 23.6 µM (inactive) | 17.3 µM (inactive) | 35.8 µM (inactive) | 21.9 µM (inactive) | 86.7 µM (inactive) | 28.2 µM (inactive) | 17.3 µM (inactive) | 52.2 µM (inactive) | 44.3 µM (inactive) | 15.1 µM (inactive) | 31.6 µM (inactive) | 50.7 µM (inactive) | 23.8 µM (inactive) | 20.9 µM (inactive) | 14.4 µM (inactive)
11 | O=C1C=CC(=O)[C@H]2C3C=CC(C4C3C3(Cl)C(Cl)=C(Cl)[C@]4(Cl)C3(Cl)Cl)[C@@H]12 (some centres not stated) | – | 3.66 µM (inactive) | 16.8 µM (inactive) | 5.71 µM (inactive) | 4.02 µM (inactive) | 4.91 µM (inactive) | 12.6 µM (inactive) | 3.14 µM (inactive) | 17.1 µM (inactive) | 10.9 µM (inactive) | 5.7 µM (inactive) | 4.92 µM (inactive) | 3.61 µM (inactive) | 8.83 µM (inactive) | 5.96 µM (inactive) | 4.3 µM (inactive) | 3.91 µM (inactive) | 4.4 µM (inactive) | 2.95 µM (inactive)
12 | Cc1cn([C@H]2C[C@@H]3[C@@H](COC(CCl)N3O)O2)c(=O)[nH]c1=O (some centres not stated) | – | > 100 µM (inactive) | > 100 µM (inactive) | > 100 µM (inactive) | > 100 µM (inactive) | > 100 µM (inactive) | – | > 100 µM (inactive) | > 100 µM (inactive) | > 100 µM (inactive) | > 100 µM (inactive) | > 100 µM (inactive) | > 100 µM (inactive) | > 100 µM (inactive) | > 100 µM (inactive) | > 100 µM (inactive) | > 100 µM (inactive) | > 100 µM (inactive) | > 100 µM (inactive)
13 | CC1C2(C)OC(=N)C(C#N)(C(c3cccc([N+](=O)[O-])c3)O2)C1(C#N)C#N (configuration not stated) | – | 26.4 µM (inactive) | 42.1 µM (inactive) | 33 µM (inactive) | 13.5 µM (inactive) | 17.7 µM (inactive) | 33.6 µM (inactive) | 14.6 µM (inactive) | – | 27.1 µM (inactive) | 13.8 µM (inactive) | 44.9 µM (inactive) | 18.5 µM (inactive) | 17.9 µM (inactive) | 31 µM (inactive) | 19.1 µM (inactive) | 22.5 µM (inactive) | – | 15.6 µM (inactive)
14 | CC(C)(C)OC(=O)CN1C(=O)CC1CC(=O)c1ccccc1 (configuration not stated) | 23.5 µM (inactive) | 17.2 µM (inactive) | 30.2 µM (inactive) | 17.9 µM (inactive) | 26.7 µM (inactive) | 19.5 µM (inactive) | 18.5 µM (inactive) | 4.14 µM (inactive) | 17 µM (inactive) | 26.1 µM (inactive) | 26.6 µM (inactive) | 20 µM (inactive) | 24.8 µM (inactive) | 19.3 µM (inactive) | 18.2 µM (inactive) | 16.3 µM (inactive) | 12.4 µM (inactive) | 30.5 µM (inactive) | –
15 | COC(=O)[C@H](Cc1ccccc1)NC(=O)[C@H](Cc1ccccc1)NC(=O)[C@@H]1CCCN1C(=O)N[C@H]1C2C=CC(C2)C1C(=O)N1CCC[C@H]1C(=O)N[C@@H](C)C(=O)N[C@H](C(=O)OC)C(C)C (some centres not stated) | – | > 100 µM (inactive) | 65.5 µM (inactive) | 94.2 µM (inactive) | > 100 µM (inactive) | > 100 µM (inactive) | > 100 µM (inactive) | 33.9 µM (inactive) | > 100 µM (inactive) | 59.6 µM (inactive) | > 100 µM (inactive) | > 100 µM (inactive) | > 100 µM (inactive) | 92 µM (inactive) | 40.9 µM (inactive) | > 100 µM (inactive) | 56.9 µM (inactive) | > 100 µM (inactive) | 22.5 µM (inactive)
16 | CC(=O)Nc1ccc(/C=C/[N+](=O)[O-])cc1 | – | 1.85 µM (inactive) | 1.75 µM (inactive) | 4.67 µM (inactive) | 7.21 µM (inactive) | 1.83 µM (inactive) | 3.09 µM (inactive) | 2 µM (inactive) | 7.96 µM (inactive) | 4.85 µM (inactive) | 2.53 µM (inactive) | 5.68 µM (inactive) | 2.42 µM (inactive) | 2 µM (inactive) | 6.15 µM (inactive) | 2.59 µM (inactive) | 2.79 µM (inactive) | 2.9 µM (inactive) | 2.33 µM (inactive)
